Reference: patent US4599334A, “7-(3-aryl-1-piperazinyl)- and 7-(3-cyclohexyl-1-piperazinyl)-3-quinolonecarboxylic acid antibacterials” (Bayer Aktiengesellschaft, priority 1984, dated 1986)
Converted amounts (≈) assume the structure as drawn.

What was measured:
Type in all cases: cell-based
Conditions in all cases: agar dilution test/isosensitest agar, unit assumed
Staphylococcus FK 422 = assay: MIC agar dilution test, Staphylococcus FK 422
Text: (§1) It has already been disclosed in J. Med. Chem. 23, 1358 (1980) that 1-ethyl-6-fluoro-1,4-dihydro-4-oxo-7-(1-piperazinyl)-3-quinolinecarboxylicacid (norfloxacin) has antibacterial properties.
(§2) MIC values (agar dilution test/isosensitest agar)

Staphylococcus 1756 = assay: MIC agar dilution test, Staphylococcus 1756
Text: as §1, §2

Serratia 16040 = assay: MIC agar dilution test, Serratia 16040
Text: as §1, §2

Klebsiella 6179 = assay: MIC agar dilution test, Klebsiella 6179
Text: as §1, §2

Klebsiella 8085 = assay: MIC agar dilution test, Klebsiella 8085
Text: as §1, §2

E. coli Neumann = assay: MIC agar dilution test, E. coli Neumann
Text: as §1, §2

Providencia 12052 = assay: MIC agar dilution test, Providencia 12052
Text: as §1, §2

Staphylococcus 133 = assay: MIC agar dilution test, Staphylococcus 133
Text: as §1, §2

Klebsiella 57 USA = assay: MIC agar dilution test, Klebsiella 57 USA
Text: as §1, §2

MIC values (Staphylococcus FK 422)	MIC values (Staphylococcus 1756)	MIC values (Serratia 16040)	MIC values (Klebsiella 6179)	MIC values (Klebsiella 8085)	MIC values (E. coli Neumann)	MIC values (Providencia 12052)	MIC values (Staphylococcus 133)	MIC values (Klebsiella 57 USA)	Structure (SMILES)
0.015 µg/mL (≈ 0.0368 µM)	0.015 µg/mL (≈ 0.0368 µM)	8 µg/mL (≈ 19.6 µM)	0.015 µg/mL (≈ 0.0368 µM)	0.015 µg/mL (≈ 0.0368 µM)	0.015 µg/mL (≈ 0.0368 µM)	4 µg/mL (≈ 9.82 µM)	0.015 µg/mL (≈ 0.0368 µM)	0.06 µg/mL (≈ 0.147 µM)	O=C(O)c1cn(C2CC2)c2cc(N3CCNC(c4ccccc4)C3)c(F)cc2c1=O (stereo not drawn) [Example 1, 1-cyclopropyl-6-fluoro-1,4-dihydro-4-oxo-7-(3-phenyl-1-piperazinyl)-3-quinolinecarboxylic acid]
0.03 µg/mL (≈ 0.0705 µM)	0.03 µg/mL (≈ 0.0705 µM)	16 µg/mL (≈ 37.6 µM)	0.06 µg/mL (≈ 0.141 µM)	0.015 µg/mL (≈ 0.0353 µM)	0.015 µg/mL (≈ 0.0353 µM)	8 µg/mL (≈ 18.8 µM)	0.06 µg/mL (≈ 0.141 µM)	0.25 µg/mL (≈ 0.588 µM)	O=C(O)c1cn(C2CC2)c2cc(N3CCNC(c4ccc(F)cc4)C3)c(F)cc2c1=O (stereo not drawn) [Example 2]
0.06 µg/mL (≈ 0.136 µM)	0.06 µg/mL (≈ 0.136 µM)	16 µg/mL (≈ 36.2 µM)	0.125 µg/mL (≈ 0.283 µM)	0.03 µg/mL (≈ 0.0679 µM)	0.03 µg/mL (≈ 0.0679 µM)	8 µg/mL (≈ 18.1 µM)	0.06 µg/mL (≈ 0.136 µM)	0.5 µg/mL (≈ 1.13 µM)	O=C(O)c1cn(C2CC2)c2cc(N3CCNC(c4ccc(Cl)cc4)C3)c(F)cc2c1=O (stereo not drawn) [Example 3]
0.06 µg/mL (≈ 0.137 µM)	0.03 µg/mL (≈ 0.0686 µM)	16 µg/mL (≈ 36.6 µM)	0.125 µg/mL (≈ 0.286 µM)	0.03 µg/mL (≈ 0.0686 µM)	0.03 µg/mL (≈ 0.0686 µM)	8 µg/mL (≈ 18.3 µM)	0.06 µg/mL (≈ 0.137 µM)	0.5 µg/mL (≈ 1.14 µM)	COc1ccc(C2CN(c3cc4c(cc3F)c(=O)c(C(=O)O)cn4C3CC3)CCN2)cc1 (stereo not drawn) [Example 5]
0.015 µg/mL (≈ 0.0306 µM)	0.015 µg/mL (≈ 0.0306 µM)	–	–	–	–	–	0.03 µg/mL (≈ 0.0612 µM)	–	O=C(O)c1cn(C2CC2)c2cc(N3CCNC(c4ccc(N5CCCCC5)cc4)C3)c(F)cc2c1=O (stereo not drawn) [Example 8]
0.125 µg/mL (≈ 0.276 µM)	0.06 µg/mL (≈ 0.133 µM)	–	–	–	–	–	0.06 µg/mL (≈ 0.133 µM)	–	O=C(O)c1cn(C2CC2)c2cc(N3CCNC(c4cccc([N+](=O)[O-])c4)C3)c(F)cc2c1=O (stereo not drawn) [Example 11]
0.06 µg/mL (≈ 0.145 µM)	0.03 µg/mL (≈ 0.0726 µM)	16 µg/mL (≈ 38.7 µM)	0.125 µg/mL (≈ 0.302 µM)	0.015 µg/mL (≈ 0.0363 µM)	0.015 µg/mL (≈ 0.0363 µM)	8 µg/mL (≈ 19.3 µM)	0.03 µg/mL (≈ 0.0726 µM)	0.5 µg/mL (≈ 1.21 µM)	O=C(O)c1cn(C2CC2)c2cc(N3CCNC(c4cccs4)C3)c(F)cc2c1=O (stereo not drawn) [Example 12]
0.125 µg/mL	0.5 µg/mL	8 µg/mL	0.25 µg/mL	0.03 µg/mL	0.015 µg/mL	32 µg/mL	0.125 µg/mL	0.125 µg/mL	Br.O=C(O)c1cn(C2CC2)c2cc(N3CCNC(c4ccc(O)cc4)C3)c(F)cc2c1=O (stereo not drawn) [Example 14, 1-cyclopropyl-6-fluoro-1,4-dihydro-7-[3-(4-hydroxyphenyl)-1-piperazinyl]-4-oxo-3-quinolinecarboxylic acid hydrobromide]
0.015 µg/mL (≈ 0.0353 µM)	0.015 µg/mL (≈ 0.0353 µM)	2 µg/mL (≈ 4.7 µM)	0.015 µg/mL (≈ 0.0353 µM)	0.015 µg/mL (≈ 0.0353 µM)	0.015 µg/mL (≈ 0.0353 µM)	4 µg/mL (≈ 9.4 µM)	0.015 µg/mL (≈ 0.0353 µM)	0.125 µg/mL (≈ 0.294 µM)	O=C(O)c1cn(C2CC2)c2c(F)c(N3CCNC(c4ccccc4)C3)c(F)cc2c1=O (stereo not drawn) [Example 16, 1-cyclopropyl-6,8-difluoro-1,4-dihydro-4-oxo-7-(3-phenyl-1-piperazinyl)-3-quinolinecarboxylic acid]
2 µg/mL (≈ 6.26 µM)	1 µg/mL (≈ 3.13 µM)	32 µg/mL (≈ 100 µM)	1 µg/mL (≈ 3.13 µM)	0.25 µg/mL (≈ 0.783 µM)	0.125 µg/mL (≈ 0.391 µM)	128 µg/mL (≈ 401 µM)	1 µg/mL (≈ 3.13 µM)	1 µg/mL (≈ 3.13 µM)	CCn1cc(C(=O)O)c(=O)c2cc(F)c(N3CCNCC3)cc21 [Norfloxacin, 1-ethyl-6-fluoro-1,4-dihydro-4-oxo-7-(1-piperazinyl)-3-quinolinecarboxylicacid, reference compound]
